According to US7419968B1, “Methods for treating therapy-resistant tumors” (Celmed Oncology (USA), Inc., priority 1999, dated 2008):
Where two headings read alike, the source gives them in different places.

What was measured:
rHuTS [1] = target: T1, rHuTS (Homo sapiens, UniProt P04818); experiment: Inhibition of rHuTS reactions by Tomudex and 5-FdUMP; type: biochemical; conditions: for activity at 0.5 µM: read-out: rate as % of No Inhibitor
T1 construct: His tag (N); made in house; host or cells: E. coli BL21 (DE3), pET-28a(+)
Method: M. Enzyme Assays and Kinetic Measurements. Thymidylate synthase assays were done in 96 well Costar UV transparent plates in a reaction volume of 200 μl, consisting of 40 mM Tris pH 7.5, 25 mM MgCl2, 1 mM EDTA, 25 mM-mercaptoethanol, 125 µM dUMP, and 65 μM N5, N1O-methylene tetrahydrofolate indicated. Tetrahydrofolate stock solutions were prepared by dissolving tetrahydrofolic acid (Sigma) directly into 0.2 M Tris pH 7.5, 0.5 M-mercaptoethanol; stock solutions were stored at −80° C. N5, N10-methylene tetrahydrofolate was prepared by adding 12 μl of 3.8% formaldehyde to 1 ml of a 0.65 mM solution of tetrahydrofolate and incubating for 5 minutes at 37° C. N5, N10-methylene tetrahydrofolate was kept on ice and used within 2 hours of preparation.
Conversion of BVdUMP to fluorescent product(s) by thymidylate synthase was measured in 200 µl thymidylate synthase reactions containing 125 µM BVdUMP in 96 well Dynex Microfluor Black “U” bottom microtiter plates using an excitation wavelength of 340 nm and emission wavelength of 595 nm. Fluorescence was measured with a Tecan Spectrafluor Plus fluorimeter.
Inhibition of rHuTS reactions by Tomudex and 5-FdUMP. Thymidylate synthase reactions containing enzyme inhibitors or cofactor were incubated at 30° C. as described in Materials and Methods, and the initial rates of the enzyme reaction were determined by measuring the increase in relative fluorescence units at 340 nm excitation, 595 nm emission for the BVdUMP reactions, or increase in A340 for the dUMP reaction.

[2] = tested on: TSL/HT1080 cells (TS Level 702%); experiment: alamarBlue growth inhibition, HT1080 clone with TS level 702%; type: cell-based; conditions: Homo sapiens, HT-1080, TSL/HT1080 (second line)
Method: (§1) F. Cell lines and transfection. HT1080 cells were grown in PRMI1640 medium supplemented with 10% fetal calf serum, and transfected with GFP-TS expression vector. 48 hours after, transfection cells were tripsinized and replated in culture medium containing 750 μg/ml G418. After selection with G418 for two weeks, surviving cells were sorted based upon fluorescence expression. One clone with higher fluorescence expression (named as TSH/HT1080) and one clone with lower fluorescence expression (named as TSL/HT1080) were selected and expanded into cells lines. The stable HT1080 cells transfected with pEGFP-C3 were used as control.
(§2) G. Construction of GFP-TS expression vector. […]
(§3) J. Growth Inhibition Studies. […] After 4 hours incubation at 37° C., fluorescence was monitored at 535 nm excitation and 595 nm emission.
(§4) Concentration vs. relative fluorescence units (RFU) were plotted, and sigmoid curves were fit using the Hill equation.
(§5) A cDNA encoding rHuTS was subcloned into ventor pEGFP-C3, in-frame with GFP. […] Individual cells were cloned based upon high or low fluorescence expression as described in Methods. *TS levels were determined by using Western blot analysis, the quantified expression levels were expressed as values relative to that of cell strain CCD18co.

[3] = tested on: normal and tumor cell types; experiment: Tumor/normal cell screen, panel averages and therapeutic index; type: cell-based, human
Method: (§6) J. Growth Inhibition Studies. Cells growing exponentially were transferred to 384-well flat bottom tissue culture plates. All cell types were plated at a density of 500 cells per well in 25 μL of complete medium (RPMI 1640+10% fetal bovine serum+antibiotics/antimycotics). After 24 hours (day 0), 25 μL of complete medium containing the experimental compounds over the dose range of 10^ñ3 to 10^ñ10 M were added in triplicate. Drug exposure time was 120 hours (day 5), after which growth inhibition was assayed. 5 μL of the redox indicator, alamarBlue, was added to each well (10% v/v). After 4 hours incubation at 37° C., fluorescence was monitored at 535 nm excitation and 595 nm emission.
as §4
Assays were carried out as described in Methods, above. Therapeutic index is calculated as the ratio of the average IC50 for normal cells to the average IC50 for tumor cells. All assays were done at least three times.

[4] = tested on: MCF7 (Breast) tumor cells; experiment: alamarBlue growth inhibition, MCF7; type: cell-based; conditions: Homo sapiens
Method: as §6, with “Drug exposure time was 120 hours (day 5), after which growth inhibition was assayed.” left out
as §4

[5] = tested on: MCF7 TDX Tomudex-resistant breast cancer cells; experiment: alamarBlue growth inhibition, MCF7 TDX; type: cell-based; conditions: Homo sapiens
Method: as §6, §4
(§7) O. Reversal of Resistance. The origin and characteristics of the human breast cancer MCF7 TDX cell line have been previously described (Drake, et al. (1996) Biochem. Pharmcol. 51(10): 1349-1355). Briefly, MCF-7 breast cancer cells were selected in vitro for resistance to Tomudex by continuous exposure to stepwise increases in TDX concentrations up to 2.0 μM.

[6] = tested on: H630R10 5FU-resistant colon tumor cells; experiment: alamarBlue growth inhibition, H630R10; type: cell-based, human
Method: as §6, with “Drug exposure time was 120 hours (day 5), after which growth inhibition was assayed.” left out
as §4

[7] = tested on: CCD18co normal colon epthelial cell; experiment: Thymidine rescue, alamar blue; type: cell-based, human; conditions: for rescue by thymidine: 10 uM thymidine; for IC50: Homo sapiens, CCD-18Co
Text: An additional approach was taken to understanding whether NB1011 might interfere with cell growth primarily by inactivating TS. This approach is based upon thymidine rescue of TS-blocked cells. […] For this reason, they survive only by scavenger mechanisms. One of the important scavenger mechanisms is utilization of extracellular thymidine. Thymidine incorporated by target cells can be converted to dTMP, usually by thymidine kinase, and thus continue DNA synthesis. Other pathways for use of exogenous thymidine have also been described If an important mechanism for NB1011 activity is via inhibition of endogenous TS, then the cytotoxicity should be relieved when thymidine is added to the cell culture media. For this experiment, a number of tumor cell lines were screened for their sensitivity to Tomudex and 5FdUrd, and ability to be rescued from these agents via thymidine supplementation. […] Experiments were carried out as described by (Patterson, et al. (1998) Cancer Res. 58: 2737-2740) with or without 10 uM thymidine, except that the alamar blue assay (see Materials and Methods) was employed to determine cytotoxicity.

[8] = target: T2, recombinant human thymidylate synthase (rHuTS) (Homo sapiens, UniProt P04818); experiment: Enzyme kinetics of rHuTS with dUMP and BVdUMP; type: biochemical
T2 construct: His tag (N); made in house; host or cells: E. coli BL21 (DE3), pET-28a(+)
Method: L. Enzyme Preparation. Cloned human thymidylate synthase plasmid pBCHTS was subcloned into E. coli. BL21 (DE3)/pET-28a(+) (Novagen) using the NdeI ñSacI insertion site, in order to add an amino terminal His tag. […] M. Enzyme Assays and Kinetic Measurements. […] Tetrahydrofolate stock solutions were prepared by dissolving tetrahydrofolic acid (Sigma) directly into 0.2 M Tris pH 7.5, 0.5 M-mercaptoethanol; stock solutions were stored at -80° C. […] N5, N10-methylene tetrahydrofolate was kept on ice and used within 2 hours of preparation. […] The catalytic efficiency of the enzyme (Kcat/Km) was calculated from the kinetic constants Km and Vmax.

rHuTS [9] = target: T1, rHuTS; experiment: Impact of folate inhibitors, cell-free rHuTS substrate utilization; type: biochemical; conditions: for remaining activity: MTX 140 μM, LV 140 μM or TDX 5 μM
Method: M. Enzyme Assays and Kinetic Measurements. […] Tetrahydrofolate stock solutions were prepared by dissolving tetrahydrofolic acid (Sigma) directly into 0.2 M Tris pH 7.5, 0.5 M-mercaptoethanol; stock solutions were stored at −80° C. […] N5, N10-methylene tetrahydrofolate was kept on ice and used within 2 hours of preparation.
Cell-free assays using rHuTS, the appropriate substrate and other components were combined as described in Methods. […] Utilization of substrate (either BVdUMP or THF) was employed as a measure of reaction rate. The numbers indicate remaining activity.

C/HT1080 cells = experiment: alamarBlue growth inhibition, C/HT1080 control; type: cell-based; conditions: Homo sapiens, HT-1080; C/HT1080, TS Level 100%
Method: as §1, §2, §3, §4, §5

[10] = tested on: TSL/HT1080 cells (GFP-TS, lower expression); experiment: alamarBlue growth inhibition, TSL/HT1080; type: cell-based; conditions: Homo sapiens, HT-1080; TSL/HT1080, TS Level 409%
Method: as §1, §2, §3, §4, §5

MCF7 TDX/1011 cells = experiment: alamarBlue growth inhibition, MCF7 TDX/1011; type: cell-based; conditions: Homo sapiens
Method: as §6, §4, §7

[11] = BVdUMP − THF, inhibitor 500 nM, relative fluorescence units

T1 sequence (P04818 whole entry): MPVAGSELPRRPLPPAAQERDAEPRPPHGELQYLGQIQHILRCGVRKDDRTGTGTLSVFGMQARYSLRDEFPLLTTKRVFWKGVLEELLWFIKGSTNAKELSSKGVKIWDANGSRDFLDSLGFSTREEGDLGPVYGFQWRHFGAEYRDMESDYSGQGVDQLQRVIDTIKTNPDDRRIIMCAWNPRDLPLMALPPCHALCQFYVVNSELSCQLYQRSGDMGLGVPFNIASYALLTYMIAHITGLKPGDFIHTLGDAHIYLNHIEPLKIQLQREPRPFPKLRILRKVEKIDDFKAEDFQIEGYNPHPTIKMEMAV
T2 sequence (P04818 whole entry): as above

## O=c1[nH]c(=O)n([C@H]2C[C@H](O)[C@@H](COP(=O)(O)O)O2)cc1F [5-FdUMP]
rHuTS [1]; BVdUMP + THF, inhibitor 500 nM
  initial rate of rHuTS reaction: 44 ± 2 RFU/min
rHuTS [1]; [11]
  initial rate of rHuTS reaction: 93 ± 13
rHuTS [1]; dUMP + THF, inhibitor 500 nM
  initial rate of rHuTS reaction: 290 ± 70 nmol/min

## O=c1[nH]cc(F)c(=O)[nH]1 [5FU, 5-fluorouracil]
[2]
  IC50: 3.5 µM
[3]; overall
  more toxic to normal cells than to tumor cells: 3 fold
[3]; ratio of average IC50 normal cells to average IC50 tumor cells
  Therapeutic index (N/T): 0.30
[4]
  IC50: 10 µM
[5]
  IC50: 32 µM

## O=c1[nH]c(=O)n([C@H]2C[C@H](O)[C@@H](CO)O2)cc1F [5FUdR, 5-fluoro-2′-deoxyuridine]
[6]
  more toxic to normal colon cells (CCD18co) than to 5FU-resistant H630R10 tumor cells: about 18 fold
[7]
  rescue by thymidine: greater than 590 fold

## O=c1[nH]c(=O)n([C@H]2C[C@H](O)[C@@H](COP(=O)(O)O)O2)cc1/C=C/Br [BVdUMP, (E)5-(2-Bromovinyl)-2′-deoxyuridine 5′-monophosphate]
[8]; 20 μM BVdUMP, dUMP 10 to 100 μM
  type of inhibition with dUMP in rHuTS: competitive
[8]; relative to endogenous substrate dUMP
  increase in catalytic efficiency of BVdUMP conversion, human enzyme vs L. casei enzyme: > 6.4 fold
rHuTS [9]; BVdUMP, w/o THF, Inhibitor None
  substrate utilization rate relative to reaction with THF: 138%
rHuTS [1]; BVdUMP + THF, No Inhibitor, 30° C.
  initial rate of rHuTS reaction: 109 ± 16 RFU/min
rHuTS [1]; BVdUMP − THF, No Inhibitor, relative fluorescence units
  initial rate of rHuTS reaction: 75 ± 11

## Nc1nc2c(c(=O)[nH]1)N(C=O)C(CNc1ccc(C(=O)N[C@@H](CCC(=O)O)C(=O)O)cc1)CN2 (stereo partly shown) [LV, 5-formyltetrahydrofolate]
rHuTS [9]; BVdUMP, w/o THF
  remaining activity: 97%
rHuTS [9]; BVdUMP, with THF
  remaining activity: 17%
rHuTS [9]; dUMP, with THF
  remaining activity: 77%

## Cc1nc2ccc(CN(C)c3ccc(C(=O)N[C@@H](CCC(=O)O)C(=O)O)s3)cc2c(=O)[nH]1 [Tomudex]
C/HT1080 cells
  IC50: 3.6 µM
[2]
  IC50: 153 µM
[10]
  IC50: 24 µM
[4]
  IC50: 0.026 µM
rHuTS [9]; BVdUMP, w/o THF
  remaining activity: 25%
rHuTS [9]; BVdUMP, with THF
  remaining activity: 0%
rHuTS [9]; dUMP, with THF
  remaining activity: 18%
rHuTS [1]; BVdUMP + THF, inhibitor 500 nM
  initial rate of rHuTS reaction: 67 ± 3 RFU/min
  activity at 0.5 µM: 61%
rHuTS [1]; BVdUMP − THF, inhibitor 500 nM
  activity at 0.5 µM: 45%
rHuTS [1]; [11]
  initial rate of rHuTS reaction: 34 ± 3
rHuTS [1]; dUMP + THF, inhibitor 500 nM
  initial rate of rHuTS reaction: 690 ± 40 nmol/min
  activity at 0.5 µM: 46%
[5]
  IC50: > 10 µM
[7]
  rescue by thymidine: 15 fold
[7]; with 10 uM thymidine
  IC50: 0.095 µM
[7]; without thymidine
  IC50: 0.0065 µM
MCF7 TDX/1011 cells
  IC50: 0.041 µM

## O=c1ccn([C@H]2C[C@H](O)[C@@H](COP(=O)(O)O)O2)c(=O)[nH]1 [dUMP, Deoxguridine Monophosphate]
rHuTS [1]; dUMP + THF, No Inhibitor, A340
  initial rate of rHuTS reaction: 1500 ± 20 nmol/min
